Experimental data from BindingDB's records for doi:10.1002/cbic.200500061 (University of Bristol, 2005).

Each compound was assayed against T1, 1-deoxy-D-xylulose 5-phosphate reductoisomerase (Escherichia coli (strain K12), UniProt P45568) (assay: Inhibition Assay). Conditions: pH 8; 37 °C.
T1 sequence (P45568 whole entry): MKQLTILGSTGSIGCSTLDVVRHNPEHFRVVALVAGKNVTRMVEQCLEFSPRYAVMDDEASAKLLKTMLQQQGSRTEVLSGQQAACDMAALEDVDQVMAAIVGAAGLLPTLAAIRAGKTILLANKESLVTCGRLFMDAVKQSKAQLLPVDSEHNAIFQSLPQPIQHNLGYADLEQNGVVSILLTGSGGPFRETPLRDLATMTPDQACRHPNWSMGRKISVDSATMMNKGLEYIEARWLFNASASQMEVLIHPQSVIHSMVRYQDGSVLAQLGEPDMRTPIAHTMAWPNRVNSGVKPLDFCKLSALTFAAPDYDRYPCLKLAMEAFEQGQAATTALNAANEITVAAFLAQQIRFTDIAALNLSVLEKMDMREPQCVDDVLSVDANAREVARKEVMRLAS
Description: The assay was monitored spectrophotometrically through the consumption of beta-NADPH. The inhibitor assays contained inhibitor at concentrations of 0.1-15 mM cyclic analogues and 5-35 mM phosphonic acid derivates.
For O=C1N[C@H](COP(=O)(O)O)CO1 [Phosphate analogue, (S)-21], the Ki was 4.1 mM. Work on NCCCP(=O)(O)O [Phosphate analogue, 8] yielded a Ki of 4 mM. Compound CC(=O)NCCCP(=O)(O)O [Phosphate analogue, 9] has a Ki of 6.5 mM. In the case of O=C1OC[C@@H](COP(=O)(O)O)N1O [Phosphate analogue, (s)-14], the Ki is reported as 0.75 mM.
